Results reported in patent US20210284668A1, “GOLD (I)-PHOSPHINE 1,2,3-TRIAZOLE DERIVATIVES WITH ANTIBIOTIC PROPERTIES” (Centre National de la Recherche Scientifique, priority 2018, published 2021).
Values joined by “and” are separate entries in the source; they are usually repeats but may differ in a detail not shown here. Equal values may be shown once.

Key:
S. aureus ATCC25923 = experiment: MIC by microdilution, S. aureus ATCC25923; type: cell-based, Staphylococcus aureus; conditions: S. aureus ATCC25923 (MecA negative, wild-type), Mueller-Hinton broth, in duplicate
Procedure, shortened: (§1)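 Broth microdilution per CLSI document M07-A10, Mueller-Hinton medium, each MIC run in duplicate. Strains include E. coli ATCC25922 (wild-type), S. epidermidis ATCC35984 (MecA positive) and S. aureus ATCC700699 (MecA positive, glycopeptide resistant), within a mixed panel of susceptible and resistant Gram-positive/Gram-negative bacteria.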

S. aureus ATCC29213 = experiment: MIC by microdilution, S. aureus ATCC29213; type: cell-based, Staphylococcus aureus; conditions: S. aureus ATCC29213 (MecA negative, wild-type), Mueller-Hinton broth, in duplicate
Procedure, shortened: as §1

S. aureus ATCC700699 = experiment: MIC by microdilution, S. aureus ATCC700699; type: cell-based, Staphylococcus aureus; design: unit not given here; conditions: S. aureus ATCC700699 (MecA positive, glycopeptide resistant), in duplicate
Procedure, shortened: (§2)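 MICs determined in duplicate by CLSI broth microdilution (M07-A10) in Mueller-Hinton broth. S. aureus ATCC700699: MecA positive, glycopeptide resistant; S. epidermidis ATCC35984: MecA positive; E. coli ATCC25922: wild-type. Panel spans Gram-positive and Gram-negative strains from wild-type to multi-drug resistant.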

S. aureus ST20131365 = experiment: MIC by microdilution, S. aureus ST20131365; type: cell-based, Staphylococcus aureus; conditions: S. aureus ST20131365 (MecA positive, glycopeptide resistant), in duplicate
Procedure, shortened: as §2

S. epidermidis ATCC14990 = experiment: MIC by microdilution, S. epidermidis ATCC14990; type: cell-based, Staphylococcus epidermidis; conditions: S. epidermidis ATCC14990 (MecA negative, wild-type), in duplicate
Procedure, shortened: as §2

S. epidermidis ATCC35984 = experiment: MIC by microdilution, S. epidermidis ATCC35984; type: cell-based, Staphylococcus epidermidis; conditions: S. epidermidis ATCC35984 (MecA positive), in duplicate
Procedure, shortened: as §2

[1] = tested on: S. epidermidis ST20140436; experiment: MIC by microdilution, S. epidermidis ST20140436; type: cell-based, Staphylococcus epidermidis; conditions: S. epidermidis ST20140436 (MecA positive, glycopeptide resistant), in duplicate
Procedure, shortened: as §1

[2] = tested on: S. epidermidis ST20150446; experiment: MIC by microdilution, S. epidermidis ST20150446; type: cell-based, Staphylococcus epidermidis; conditions: S. epidermidis ST20150446 (MecA positive, glycopeptide resistant), in duplicate
Procedure, shortened: as §1

E. faecalis JH2-2 = experiment: MIC by microdilution, E. faecalis JH2-2; type: cell-based, Enterococcus faecalis; design: unit not given here; conditions: E. faecalis JH2-2 (wild-type), in duplicate
Procedure, shortened: as §1

E. faecalis UCN41 = experiment: MIC by microdilution, E. faecalis UCN41; type: cell-based, Enterococcus faecalis; design: unit not given here; conditions: E. faecalis UCN41 (VanA positive, glycopeptide resistant), in duplicate
Procedure, shortened: as §1

E. faecalis V583 = experiment: MIC by microdilution, E. faecalis V583; type: cell-based, Enterococcus faecalis; conditions: E. faecalis V583 (VanB positive, glycopeptide resistant), in duplicate
Procedure, shortened: as §2

E. faecium ATCC19434T = experiment: MIC by microdilution, E. faecium ATCC19434T; type: cell-based, Enterococcus faecium; design: unit not given here; conditions: E. faecium ATCC19434T (wild-type), in duplicate
Procedure, shortened: as §1

E. faecium BM4147 = experiment: MIC by microdilution, E. faecium BM4147; type: cell-based, Enterococcus faecium; design: unit not given here; conditions: E. faecium BM4147 (VanA positive, glycopeptide resistant), in duplicate
Procedure, shortened: as §1

E. faecium AUS0004 = experiment: MIC by microdilution, E. faecium AUS0004; type: cell-based, Enterococcus faecium; conditions: E. faecium AUS0004 (VanB positive, glycopeptide resistant), in duplicate
Procedure, shortened: as §1

E. coli ATCC25922 = experiment: MIC by microdilution, E. coli ATCC25922; type: cell-based, Escherichia coli; conditions: E. coli ATCC25922 (wild-type), in duplicate
Procedure, shortened: as §2

[3] = tested on: Clostridium difficile ATCC700057; experiment: MIC by microdilution, Clostridium difficile; type: cell-based; conditions: strain ATCC70057 [sic] (Tables 1-2) / ATCC700057 (Tables 3-10), in duplicate
[4] = tested on: panel of Gram-positive and Gram-negative strains; experiment: Antibacterial profile on the selected panel of strains; type: cell-based; conditions: summary of Tables 1-12
Procedure, shortened: as §2

Row | Compound | Minimal Inhibitory Concentration (MIC) (S. aureus ATCC25923) | Minimal Inhibitory Concentration (MIC) (S. aureus ATCC29213) | Minimal Inhibitory Concentration (MIC) (S. aureus ATCC700699) | Minimal Inhibitory Concentration (MIC) (S. aureus ST20131365) | Minimal Inhibitory Concentration (MIC) (S. epidermidis ATCC14990) | Minimal Inhibitory Concentration (MIC) (S. epidermidis ATCC35984) | Minimal Inhibitory Concentration (MIC) [1] | Minimal Inhibitory Concentration (MIC) [2] | Minimal Inhibitory Concentration (MIC) (E. faecalis JH2-2) | Minimal Inhibitory Concentration (MIC) (E. faecalis UCN41) | Minimal Inhibitory Concentration (MIC) (E. faecalis V583) | Minimal Inhibitory Concentration (MIC) (E. faecium ATCC19434T) | Minimal Inhibitory Concentration (MIC) (E. faecium BM4147) | Minimal Inhibitory Concentration (MIC) (E. faecium AUS0004) | Minimal Inhibitory Concentration (MIC) (E. coli ATCC25922) | Minimal Inhibitory Concentration (MIC) [3] | antimicrobial / antibacterial activity (in words) [4]
1 | CC1(C)S[C@@H]2[C@H](NC(=O)[C@H](NC(=O)OCc3cnnn3Cc3ccccc3)c3ccccc3)C(=O)N2[C@H]1C(=O)O [TMB7] | 1 | 1 | >8 | >8 | 1 | >8 | 8 | >8 | 1 and 2 | 4 | 2 | 8 | >8 | >8 | >8 | 4 | do not show an antibacterial activity
2 | CC[P+](CC)(CC)[Au-][c]1nn[nH]c1CC(N)C(=O)O (stereo not shown) [TMB37] | 0.125 | 0.125 and 0.25 | 0.25 | 0.25 | ≤0.06 | ≤0.06 | 0.125 | 0.125 | 0.5 | 0.5 | 0.5 | 0.5 | 0.5 | 0.5 | >8 | ≤0.06 | have antimicrobial activity
3 | CC[P+](CC)(CC)[Au-][c]1nn[nH]c1COC(=O)NC(C(=O)O)c1ccccc1 (stereo not shown) [TMB1] | 0.125 | 0.125 | 0.125 and 0.25 | 0.125 | ≤0.06 | ≤0.06 | ≤0.06 | ≤0.06 | 0.25 and 0.5 | 0.5 | 0.5 and 1 | 0.5 | 1 | 0.5 | >8 | ≤0.06 | have antimicrobial activity
4 | CC[P+](CC)(CC)[Au-][c]1nn[nH]c1CCCO [TMB34] | ≤0.06 | ≤0.06 | ≤0.06 | ≤0.06 | ≤0.06 | ≤0.06 | ≤0.06 | ≤0.06 | 0.125 | 0.125 | 0.125 | 0.125 | 0.125 | 0.125 | >8 | ≤0.06 | have antimicrobial activity
5 | CC1(C)S[C@@H]2[C@H](NC(=O)[C@H](NC(=O)CCc3cnnn3Cc3ccccc3)c3ccccc3)C(=O)N2[C@H]1C(=O)O [TMB6] | 0.5 | 0.5 and 1 | >8 | >8 | 0.5 | >8 | 4 | 4 and 8 | 2 and 4 | 8 | 4 | 8 | >8 | >8 | >8 | 2-4 | do not show an antibacterial activity
6 | CC[P+](CC)(CC)[Au-][c]1nn[nH]c1CN1CCN(C)CC1 [TMB33] | 0.125 | 0.25 | 0.25 | 0.25 | ≤0.06 | ≤0.06 | 0.25 | 0.25 | 0.25 | 1 | 0.5 | 0.25 | 0.5 | 0.5 | >8 | ≤0.06 | have antimicrobial activity
7 | CC[P+](CC)(CC)[Au-][c]1nn[nH]c1-c1cccc(C(=O)O)c1 [TMB13] | 0.125 | 0.125 and 0.25 | 0.25 | 0.25 | ≤0.06 | ≤0.06 | ≤0.06 | ≤0.06 | 1 and 2 | 1 and 2 | 1 and 2 | 0.5 | 2 | 1 and 2 | >8 | ≤0.06 | have antimicrobial activity
8 | CC[P+](CC)(CC)[Au-][c]1nn[nH]c1COC(=O)NC(C(=O)O)c1ccc(O)cc1 (stereo not shown) [TMB26] | 0.125 | 0.125 | 0.25 | 0.125 | ≤0.06 | ≤0.06 | ≤0.06 | ≤0.06 | 0.25 | 0.25 | 0.5 | 0.25 | 0.5 | 0.5 | >8 | 0.125 | have antimicrobial activity
